Measured values as given in US10221163B2 (priority 2015, dated 2019).
Where a name gives a salt, the structure may show the parent alone. Read-outs that look alike come from different tables or passages of the source.

What was measured:
VIM-1 = VIM-1 (Pseudomonas aeruginosa (strain ATCC 15692 / DSM 22644 / CIP 104116 / JCM 14847 / LMG 12228 / 1C / PRS 101 / PAO1), UniProt A0A0F7KYQ8); experiment: biochemical; conditions: CCF2-FA substrate, 30 pM enzyme, 2 hours at 25° C.
Procedure, shortened: (§1)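 Inhibitor was mixed with the metallo-β-lactamase and CCF2-FA. After 2 hours at 25° C, fluorescence of the coumarin–fluorescein cephalosporin substrate was read. IC50 was calculated with a 4-parameter fit.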

[1] = system: Serratia marcescens expressing IMP-1 (CL5741); format: cell-based; conditions: IMP-1 strain CL5741, with imipenem 1 μg/ml
Procedure, shortened: (§2)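 Growth by absorbance after 22–24 h at 35°C defined the read-out, with imipenem fixed at 1 μg/ml alongside compound. Inocula came from overnight blood-agar colonies at 35°C, resuspended in saline and diluted 1:100 in 1.1×CAMHB.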

[2] = system: Escherichia coli expressing NDM-1 (CLB30005, CLB30016); format: cell-based; conditions: NDM-1 strain, with imipenem 1 μg/ml
Procedure, shortened: as §2

[3] = system: Klebsiella pneumoniae expressing VIM-1 (IHMA599644); format: cell-based; conditions: VIM-1 strain IHMA599644, with imipenem 1 μg/ml
Procedure, shortened: as §2

[4] = system: Pseudomonas aeruginosa efflux+ (MB9798), IMP-1; format: cell-based; parameters: Concentration of metallo-β-lactamase inhibitor which restores susceptibility of efflux + (MB9798) strain to imipenem: unit not given here; conditions: efflux+ MB9798; imipenem at 2 μg/mL; in the presence of a class A, C, D serine β-lactamase inhibitor closely related to relebactam
Procedure, shortened: (§3)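 P. aeruginosa PAO1-derived IMP-1 strains, efflux+ MB9798 and efflux− MB9799, tested by standard microbroth MIC with imipenem and/or ceftazidime fixed, usually at CLSI breakpoint, plus fixed class A/C β-lactamase inhibitor against AmpC. Inhibitor titrated; concentration restoring susceptibility recorded; MB9798/MB9799 fold difference indicates efflux.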

[5] = system: Pseudomonas aeruginosa MB9798 vs MB9799; conditions: fold difference between efflux+ (MB9798) and efflux− (MB9799) strains, imipenem at 2 μg/mL
Procedure, shortened: as §3

IMP-1 = IMP-1 (Serratia marcescens, UniProt P52699); experiment: biochemical; format: biochemical; conditions: fluorescence assay, CCF2-FA substrate, 2 pM enzyme, 2 hours at 25° C., read-out: IMP-1 IC50
IMP-1, sequence (P52699 whole entry, looked up, species assumed): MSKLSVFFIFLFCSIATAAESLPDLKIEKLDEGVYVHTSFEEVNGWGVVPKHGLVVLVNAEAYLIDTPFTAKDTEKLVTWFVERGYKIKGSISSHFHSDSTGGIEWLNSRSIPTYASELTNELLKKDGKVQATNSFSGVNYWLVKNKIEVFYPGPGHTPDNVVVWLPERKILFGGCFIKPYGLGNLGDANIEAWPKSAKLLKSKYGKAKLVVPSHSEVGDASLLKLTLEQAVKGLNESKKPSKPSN
Procedure, shortened: as §1

NDM-1 = NDM-1 (Klebsiella pneumoniae, UniProt C7C422); experiment: biochemical; format: biochemical; conditions: fluorescence assay, CCF2-FA substrate, 1 pM enzyme, 2 hours at 25° C., read-out: NDM-1 IC50
NDM-1, sequence (C7C422 whole entry, looked up, species assumed): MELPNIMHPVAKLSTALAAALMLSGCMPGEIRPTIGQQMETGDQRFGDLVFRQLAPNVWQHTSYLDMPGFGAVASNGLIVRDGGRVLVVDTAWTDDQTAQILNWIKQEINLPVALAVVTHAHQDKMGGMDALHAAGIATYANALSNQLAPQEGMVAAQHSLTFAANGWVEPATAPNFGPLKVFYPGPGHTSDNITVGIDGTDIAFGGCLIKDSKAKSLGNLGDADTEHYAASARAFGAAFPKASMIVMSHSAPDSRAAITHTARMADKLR
Procedure, shortened: as §1

[6] = system: Pseudomonas aeruginosa efflux− (MB9799), IMP-1; format: cell-based; conditions: efflux− MB9799, imipenem at 2 μg/mL, in the presence of a class A, C, D serine β-lactamase inhibitor closely related to relebactam
Procedure, shortened: as §3

[7] = fluorescence assay, read-out: VIM-1 IC50
[8] = 95% inhibition of bacterial growth

Row | Structure (SMILES) | IC50 (VIM-1; VIM-1 IC50, fluorescence assay) [pM] | Serratia marcescens MITC95 ([1]; 95% inhibition of growth) [µM] | Escherichia coli MITC95 ([2]; 95% inhibition of growth, dihydrochloride) [µM] | Klebsiella pneumoniae MITC95 ([3]; 95% inhibition of growth) [µM] | Concentration of metallo-β-lactamase inhibitor which restores susceptibility of efflux + (MB9798) strain to imipenem [4] | Efflux ratio ([5]; dihydrochloride) | IC50 (IMP-1; dihydrochloride) [pM] | IC50 (NDM-1; dihydrochloride) [pM] | Concentration of metallo-β-lactamase inhibitor which restores susceptibility of efflux − (MB9799) strain to imipenem ([6]; dihydrochloride) | IC50 (VIM-1; [7]) [pM] | Escherichia coli MITC95 ([2]; 95% inhibition of growth) [µM] | Efflux ratio [5] | IC50 (IMP-1) [pM] | IC50 (NDM-1) [pM] | Concentration of metallo-β-lactamase inhibitor which restores susceptibility of efflux − (MB9799) strain to imipenem [6] | Serratia marcescens MITC95 [1, 8] [µM] | Escherichia coli MITC95 [2, 8] [µM] | Klebsiella pneumoniae MITC95 [3, 8] [µM]
1 | NC[C@@]1(NS(=O)(=O)c2ccc(-c3ccc(N)nc3)c(-c3nn[nH]n3)c2S(N)(=O)=O)CCNC1 [Example 487, (S)-N1-(3-(aminomethyl)pyrrolidin-3-yl)-4-(6-aminopyridin-3-yl)-3-(2H-tetrazol-5-yl)benzene-1,2-disulfonamide dihydrochloride] | 527 | 0.7813 | 0.3906 | 1.563 | 1.563 | 1.00 | 803 | 274 | 1.563 | – | – | – | – | – | – | – | – | –
2 | Nc1ccc(-c2ccc(S(=O)(=O)NC[C@@H]3CCCN3)c(S(N)(=O)=O)c2-c2nn[nH]n2)cn1 [Example 488, (S)-4-(6-aminopyridin-3-yl)-N1-(pyrrolidin-2-ylmethyl)-3-(2H-tetrazol-5-yl)benzene-1,2-disulfonamide] | – | 0.1953 | – | 1.563 | 0.7813 | – | – | – | – | 210 | 0.1953 | 1.00 | 355 | 206 | 0.7813 | – | – | –
3 | Nc1ccc(-c2ccc(S(=O)(=O)NC[C@H]3CCCN3)c(S(N)(=O)=O)c2-c2nn[nH]n2)cn1 [Example 489, (R)-4-(6-aminopyridin-3-yl)-N1-(pyrrolidin-2-ylmethyl)-3-(2H-tetrazol-5-yl)benzene-1,2-disulfonamide] | – | 0.3906 | – | 1.563 | 1.563 | – | – | – | – | 267 | 0.3906 | 2.00 | 566 | 246 | 0.7813 | – | – | –
4 | Nc1ccc(-c2ccc(S(=O)(=O)NC[C@@H]3CCNC3)c(S(N)(=O)=O)c2-c2nn[nH]n2)cn1 [Example 491, (R)-4-(6-aminopyridin-3-yl)-N1-(pyrrolidin-3-ylmethyl)-3-(2H-tetrazol-5-yl)benzene-1,2-disulfonamide] | – | 0.7813 | – | 1.563 | 0.7813 | – | – | – | – | 132 | 0.1953 | 1.00 | 271 | 93.9 | 0.7813 | – | – | –
5 | Nc1ccc(-c2ccc(S(=O)(=O)NCC3(O)CCNCC3)c(S(N)(=O)=O)c2-c2nn[nH]n2)cn1 [Example 492, 4-(6-aminopyridin-3-yl)-N1-((4-hydroxypiperidin-4-yl)methyl)-3-(2H-tetrazol-5-yl)benzene-1,2 disulfonamide] | 240 | 1.563 | – | 3.125 | 1.563 | – | – | – | – | – | 0.3906 | 1.00 | 520 | 305 | 1.563 | – | – | –
6 | Nc1ccc(-c2ccc(S(=O)(=O)NC3CNC3)c(S(N)(=O)=O)c2-c2nn[nH]n2)cn1 [Example 493, 4-(6-aminopyridin-3-yl)-N1-(azetidin-3-yl)-3-(2H-tetrazol-5-yl)benzene-1,2-disulfonamide] | – | 0.3906 | – | 1.563 | 0.3906 | – | – | – | – | 179 | 0.3906 | 0.50 | 403 | 188 | 0.7813 | – | – | –
7 | Nc1ccc(-c2ccc(S(=O)(=O)NCC3(O)CNC3)c(S(N)(=O)=O)c2-c2nn[nH]n2)cn1 [Example 495, 4-(6-aminopyridin-3-yl)-N1-((3-hydroxyazetidin-3-yl)methyl)-3-(2H-tetrazol-5-yl)benzene-1,2-disulfonamide] | – | 0.7813 | – | 1.563 | 0.7813 | – | – | – | – | 301 | 0.1953 | 1.00 | 328 | 215 | 0.7813 | – | – | –
8 | Cl.Cl.NCCCNS(=O)(=O)c1ccc(-c2ccc(N)nc2)c(-c2nn[nH]n2)c1S(N)(=O)=O [Example 496, N1-(3-aminopropyl)-4-(6-aminopyridin-3-yl)-3-(2H-tetrazol-5-yl)benzene-1,2-disulfonamide hydrogen chloride] | – | – | – | – | 0.7813 | – | – | – | – | 175 | – | 1.00 | 576 | 200 | 0.7813 | 0.7813 | 0.09766 | 1.563
9 | CC1(NS(=O)(=O)c2ccc(-c3ccc(N)nc3)c(-c3nn[nH]n3)c2S(N)(=O)=O)CNC1.Cl.Cl [Example 497, 4-(6-aminopyridin-3-yl)-1-N-(3-methylazetidin-3-yl)-3-(2H-1,2,3,4-tetrazol-5-yl)benzene-1,2-disulfonamide hydrogen] | – | – | – | – | 0.7813 | – | – | – | – | 219 | – | 1.00 | 645 | 131 | 0.7813 | 0.7813 | 0.3906 | 1.563
10 | C[C@H](CCN)NS(=O)(=O)c1ccc(-c2ccc(N)nc2)c(-c2nn[nH]n2)c1S(N)(=O)=O [Example 498, (R)-N1-(4-aminobutan-2-yl)-4-(6-aminopyridin-3-yl)-3-(1H-tetrazol-5-yl)benzene-1,2-disulfonamide] | – | – | – | – | 0.7813 | – | – | – | – | 51.2 | – | 1.00 | 76.3 | 14.6 | 0.7813 | 1.563 | 1.563 | 3.125
11 | C[C@@H](CCN)NS(=O)(=O)c1ccc(-c2ccc(N)nc2)c(-c2nn[nH]n2)c1S(N)(=O)=O [Example 499, (S)-N1-(4-aminobutan-2-yl)-4-(6-aminopyridin-3-yl)-3-(1H-tetrazol-5-yl)benzene-1,2-disulfonamide] | – | – | – | – | 0.7813 | – | – | – | – | 291 | – | 1.00 | 1020 | 555 | 0.7813 | 1.563 | 0.7813 | 3.125
